According to publication PMC9929232, “On-demand male contraception via acute inhibition of soluble adenylyl cyclase” (Nature Communications, 2023):
Values joined by “and” are separate entries in the source; they are usually repeats but may differ in a detail not shown here. Identical values can stand only once.

Legend:
[1] = tested on: human sperm; experiment: cAMP generation in human sperm in vitro, incl. wash-out by dilution; type: cell-based; conditions: 30 minutes
Description: Samples of human semen were obtained from healthy volunteers with their prior written consent following a protocol approved by Weill Cornell Medicine’s Institutional Review Board (IRB 21-03023495). […] Semen was incubated for 30 min in a 37 °C incubator to liquefy. […] The tubes were incubated at a tilted angle of 45° at 37 °C for 60 min. Motile sperm were allowed to swim up into the HTF layer; immotile sperm and other cells or tissue debris remain in the ejaculate fraction. Up to 3 ml of the HTF layer was transferred to a fresh tube and washed twice in HTF by centrifugation (700 × g, 20 min). The supernatant was removed after the last centrifugation step and the sperm pellet was resuspended in 1 ml HTF. The purity and vitality of each sample was assessed via light microscopy. Sperm cell numbers were determined using a hemocytometer and adjusted to a concentration of 1 × 10^7 cells/ml.

[2] = tested on: mouse sperm; experiment: Flagellar beat frequency of tethered mouse sperm; type: cell-based
Description: (§1) An inverted dark-field video microscope (IX73; Olympus) with a 10 x objective (mouse sperm) or a 20 x objective (human sperm) (UPLSAPO, NA 0.8; Olympus) was combined with a high-speed camera (ORCA Fusion; Hamamatsu). Dark-field videos were recorded with a frame rate of 200 Hz. The temperature of the heated stage was set to 37 °C (stage top incubator WSKMX; TOKAI HIT). The images were preprocessed with the ImageJ plugin SpermQ Preparator (Gaussian blur with sigma 0.5 px; subtract background method with radius 5 px) and analyzed using the ImageJ plugin SpermQ[57]. The beat frequency was determined from the highest peak in the frequency spectrum of the curvature time course, obtained by Fast Fourier Transform.

[3] = tested on: human sperm; experiment: Flagellar beat frequency of tethered human sperm; type: cell-based
Description: as §1

[4] = tested on: mouse sperm; experiment: Acrosome reaction assay, mouse sperm, zona pellucidae-evoked; type: cell-based; conditions: Fig. 2g replicates, 5 μM TDI-10229 or 10 nM TDI-11861
Description: Zonae pellucidae were isolated from female mice superovulated by intraperitoneal injection of 10 I.U. […] 3 days before the experiment. 14 h before oocyte isolation, mice were injected with 10 I.U. pregnant mare’s serum gonadotropin. Mice were sacrificed by cervical dislocation and oviducts were dissected. Cumulus-enclosed oocytes were separated from the oviducts and placed into TYH buffer containing 300 μg/ml hyaluronidase. After 15 min, cumulus-free oocytes were transferred into fresh buffer and washed twice. Zonae pellucidae and oocytes were separated by shear forces generated by expulsion from […] pasteur pipettes. Zona pellucidae were counted, transferred into fresh buffer, and heat-solubilized by incubation for 10 min at 65 °C.
Acrosome reaction was induced by incubating mouse sperm with 50 mouse solubilized zonae pellucidae for 15 min at 37 °C. Human sperm were incubated with 10 μM progesterone for 30 min at 37 °C. […] Samples were air-dried on microscope slides and fixed for 30 minutes in 100% ethanol at room temperature (RT). For acrosome staining, mouse and human sperm were incubated for 30 min in the dark with 5 μg/ml PNA-FITC or 5 μg/ml PSA-FITC, respectively, and counterstained with 2 μg/ml DAPI. After curing, slides were analyzed using a Zeiss LSM 880 Laser Scanning Confocal Microscope; images were captured with two photomultiplier and one Gallium Arsenide Phosphide detector using ZEN Imaging software. For each condition, at least 600 cells were analyzed using ImageJ 1.52.

[5] = tested on: epididymal mouse sperm; experiment: Ex vivo motility (CASA) of epididymal sperm from inhibitor-treated male mice; type: in vivo
Description: Sperm movements of 10 fields of at least 200 sperm were examined using computer-assisted sperm analysis (CASA) via Hamilton–Thorne digital image analyzer (IVOS II, Hamilton Thorne Research, Beverly, MA) with the following parameters: 30 frames, frame rate: 60 Hz, cell size: 30–170 μm^2. Ejaculated uterine mouse sperm were recorded without additional dilution. Sperm were considered motile when presenting STR ≥80% and VAP ≥50 μm/s and hyperactivated when presenting VCL ≥270 μm/s, LIN < 50%, and ALH ≥7 μm. Track´s color code: motile (green), progressive (turquoise), hyperactivated (purple), slow (pink), static (red), not counted due to late entry (yellow).

[6] = tested on: mouse sperm; experiment: cAMP generation in mouse sperm in vitro, incl. wash-out by dilution; conditions: 12 minutes
Description: For capacitation, sperm were incubated for 90 min in TYH containing 3 mg/ml BSA and 25 mM NaHCO3 in a 37 °C incubator. To control for the consequences of dilution during isolation of epididymal mouse sperm for ex vivo assays, we assessed the ability of bicarbonate to induce a prototypical pattern of tyrosine phosphorylation (pY) which is a widely used molecular hallmark of capacitation[53]. Bicarbonate-induced pY is known to be sAC dependent in vitro[20],[22],[35]. For experiments studying sperm from injected mice, ‘swim out’ was performed in 200 μl TYH, which corresponded to a 1:10 dilution from epididymis (20 μg cauda in 200 μl buffer). Capacitation-induced changes were assessed by adding 50 µl of ‘swim out’ sperm to increasing volumes of capacitating TYH buffer.
cAMP generation was measured in mouse and human sperm. […] For human sperm, aliquots of 2 × 10^6 cells were incubated for 30 min in the presence or absence of sAC inhibitor in non-capacitating or capacitating HTF buffer. In both cases, 0.1% DMSO was used as vehicle control.
After 5 min, 150 µl of sperm/inhibitor mix was diluted into 1.35 ml non-capacitating or capacitating media with no inhibitor. […] Sperm lysates were centrifuged at 2000 × g for 3 min and the cAMP in the supernatant was acetylated and quantified using the Direct cAMP ELISA kit (Enzo).

[7] = tested on: epididymal mouse sperm; experiment: Tyrosine phosphorylation (pY) Western blot of sperm from injected mice; conditions: for capacitation-induced pY pattern: 50 mg/kg i.p., 1 hour
Description: (§2) For capacitation, sperm were incubated for 90 min in TYH containing 3 mg/ml BSA and 25 mM NaHCO3 in a 37 °C incubator. To control for the consequences of dilution during isolation of epididymal mouse sperm for ex vivo assays, we assessed the ability of bicarbonate to induce a prototypical pattern of tyrosine phosphorylation (pY) which is a widely used molecular hallmark of capacitation[53]. […] For experiments studying sperm from injected mice, ‘swim out’ was performed in 200 μl TYH, which corresponded to a 1:10 dilution from epididymis (20 μg cauda in 200 μl buffer). Capacitation-induced changes were assessed by adding 50 µl of ‘swim out’ sperm to increasing volumes of capacitating TYH buffer.
Mouse sperm from vehicle- or inhibitor-injected mice were isolated 1 hour post injection from male mice injected (i.p.) with 150 µl of solution containing sAC inhibitor or vehicle. ‘Swim out’ sperm were diluted 1:1 to 1:100 in capacitating TYH media. As control, sperm from vehicle-injected mice were diluted 1:100 in non-capacitating and capacitating TYH buffer. The samples were incubated for 90 min, washed with 1 ml PBS and sedimented by centrifugation at 2000 × g for 3 min. The sedimented sperm were resuspended in 15 μl 2× Laemmli sample buffer, heated for 5 min at 95 °C, supplemented with 8 µl β-mercaptoethanol and heated again for 5 min at 95 °C. For Western blot analysis, proteins were transferred onto PVDF membranes (Thermo Scientific), probed with anti-phosphotyrosine (1:1000, clone 4G10, Merck Millipore) and anti-mouse IgG (1:10,000, Cell Signaling Technology) antibodies, and analyzed using a chemiluminescence detection system. Image lab (Bio-Rad) was used for densitometric analysis of western blots.

[8] = tested on: epididymal mouse sperm; experiment: Ex vivo cAMP generation in epididymal sperm from inhibitor-treated male mice (oral or i.p.)
Description: as §2
Intracellular cAMP levels were quantified using the Direct cAMP ELISA kit (Enzo) as above.

[9] = sheet Fig. 2c replicates, 5 μM TDI-10229 or 10 nM TDI-11861 present
[10] = sheet Fig. 2d replicates, 5 min preincubation in 5 μM TDI-10229 or 10 nM TDI-11861, diluted 1:100 into inhibitor-free media
[11] = sheet Fig. 2a replicates, 5 μM TDI-10229 or 10 nM TDI-11861 present
[12] = sheet Fig. 2b replicates, 5 min preincubation in 5 μM TDI-10229 or 10 nM TDI-11861, diluted 1:100 into inhibitor-free media

## Cc1c(Cc2ccccc2)c(-c2cc(Cl)nc(N)n2)nn1C [TDI-10229, reference compound]
[1]; [9]
  cAMP, capacitation media: 0.877 pmol/10^6 sperm and 0.67 pmol/10^6 sperm and 0.652 pmol/10^6 sperm and 0.78 pmol/10^6 sperm and 1.141 pmol/10^6 sperm and 0.8484 pmol/10^6 sperm and 1.0045 pmol/10^6 sperm
  cAMP, non-capacitation media: 0.136 pmol/10^6 sperm and 0.12 pmol/10^6 sperm and 0.2 pmol/10^6 sperm and 0.75 pmol/10^6 sperm and 0.55 pmol/10^6 sperm and 0.7798 pmol/10^6 sperm and 0.493 pmol/10^6 sperm
[1]; [10]
  cAMP, capacitation media: 1.0484 pmol/10^6 sperm and 0.9036 pmol/10^6 sperm and 1.37 pmol/10^6 sperm and 1.1895 pmol/10^6 sperm and 1.866 pmol/10^6 sperm
  cAMP, non-capacitation media: 0.7172 pmol/10^6 sperm and 0.3596 pmol/10^6 sperm and 1.05 pmol/10^6 sperm and 0.7885 pmol/10^6 sperm and 1.206 pmol/10^6 sperm
[2]; distal 10 μm of flagellum, 5 μM TDI-10229 or 10 nM TDI-11861, mean ± SEM
  Beat frequency, Basal: 10.4 ± 0.8 Hz
[2]; distal 10 μm, 25 mM NaHCO3, 5 μM TDI-10229 or 10 nM TDI-11861, mean ± SEM
  Beat frequency, + HCO3-: 11.7 ± 1.8 Hz
[3]; distal 5 µm of flagellum, 5 μM TDI-10229 or 10 nM TDI-11861, mean ± SEM
  Beat frequency, Basal: 12.2 ± 0.8 Hz
[3]; distal 5 µm, 25 mM NaHCO3, 5 μM TDI-10229 or 10 nM TDI-11861, mean ± SEM
  Beat frequency, + HCO3-: 14.5 ± 0.6 Hz
[4]; 5 mM db-cAMP/500 μM IBMX
  Acrosome reacted (%), basal + db-cAMP/IBMX: 27.72% and 28.24% and 29.05% and 27.83% and 24.06%
[4]; 50 heat-solubilized zona pellucidae
  Acrosome reacted (%), ZP: 22.4% and 26.2% and 28.2% and 15.6% and 20%
[4]; 90 min capacitating media
  Acrosome reacted (%), basal: 20.3% and 33.8% and 26.7% and 16.5% and 28%
[4]; zona pellucidae, 5 mM db-cAMP/500 μM IBMX
  Acrosome reacted (%), ZP + db-cAMP/IBMX: 32% and 38.6% and 36.8% and 38% and 41.8%
[5]; 50 mg/kg oral
  motility of epididymal sperm diluted ex vivo: motile and indistinguishable from sperm from vehicle-treated mice
[5]; Fig. 3b replicates, 50 mg/kg oral gavage, 1 hour, diluted 1:100 in inhibitor-free non-capacitating media, CASA, 50 mg/kg
  motility (%): 34.7% and 36.8% and 35.1% and 36.4% and 29.7% and 32.4% and 30.6% and 26% and 32% and 33.4% and 29.4%
[5]; Fig. 3d, individual replicates
  motility (%): 19.9% and 28.3% and 25% and 29.5% and 30.2% and 35.4% and 40.7% and 41.4% and 42.3%
[6]; [11]
  cAMP, capacitation media: 0.708 pmol/10^6 sperm and 0.223 pmol/10^6 sperm and 0.8377 pmol/10^6 sperm and 0.328 pmol/10^6 sperm and 0.317 pmol/10^6 sperm and 0.164 pmol/10^6 sperm and 0.248 pmol/10^6 sperm and 0.209 pmol/10^6 sperm and 0.814 pmol/10^6 sperm and 0.028 pmol/10^6 sperm
  cAMP, non-capacitation media: 0.791 pmol/10^6 sperm and 0.172 pmol/10^6 sperm and 0.69 pmol/10^6 sperm and 0.464 pmol/10^6 sperm and 0.354 pmol/10^6 sperm and 0.286 pmol/10^6 sperm and 0.57 pmol/10^6 sperm and 0.578 pmol/10^6 sperm and 1.32 pmol/10^6 sperm and 0.473 pmol/10^6 sperm
[6]; [12]
  cAMP, capacitation media: 0.7514 pmol/10^6 sperm and 0.838 pmol/10^6 sperm and 0.907 pmol/10^6 sperm and 0.4366 pmol/10^6 sperm and 0.08556 pmol/10^6 sperm and 0.441 pmol/10^6 sperm and 0.751 pmol/10^6 sperm and 1.195 pmol/10^6 sperm
  cAMP, non-capacitation media: 0.7446 pmol/10^6 sperm and 0.94 pmol/10^6 sperm and 1.147 pmol/10^6 sperm and 0.8426 pmol/10^6 sperm and 0.7363 pmol/10^6 sperm and 0.601 pmol/10^6 sperm and 0.752 pmol/10^6 sperm and 1.525 pmol/10^6 sperm
[7]; diluted 25 fold
  capacitation-induced pY pattern: restored
[7]; swim out sperm mixed with equal volume capacitation media
  capacitation-induced pY pattern: blocked
[7]; Fig. S1f, 1:1 capacitating media
  normalized pY: 1.44 and 0.9739 and 0.9492 and 1.269 and 0.7377 and 0.8308 and 0.9909 and 0.9583
[7]; Fig. S1f, 1:5 capacitating media
  normalized pY: 1.231 and 0.8896 and 0.8967 and 1.293 and 1.015 and 0.7938 and 1.073 and 0.7598
[7]; Fig. S1f, 1:10 capacitating media
  normalized pY: 1.238 and 0.8061 and 0.8834 and 1.18 and 1.244 and 0.7753 and 1.106 and 0.8286
[7]; Fig. S1d, 1:1 capacitating media
  normalized pY: 1.323 and 2.451 and 1.717 and 1.956
[7]; Fig. S1d, 1:5 capacitating media
  normalized pY: 1.566 and 2.38 and 1.568 and 1.6103
[7]; Fig. S1d, 1:10 capacitating media
  normalized pY: 1.95 and 2.076 and 2.342 and 1.601
[7]; Fig. S1d, 1:25 capacitating media
  normalized pY: 1.653 and 2.642 and 2.388
[7]; Fig. S1d, 1:50 capacitating media
  normalized pY: 1.946 and 2.557 and 2.122 and 1.827
[7]; Fig. S1d, 1:100 capacitating media
  normalized pY: 1.953 and 2.689 and 1.737 and 1.751
[8]; 50 mg/kg i.p.
  bicarbonate-induced cAMP response, sperm directly isolated: prevented bicarbonate-induced increase in cAMP
[8]; 50 mg/kg oral, 1 hour, cauda sperm
  bicarbonate-induced cAMP response, sperm measured directly: no bicarbonate-induced increase in cAMP
[8]; Fig. 3a replicates, 50 mg/kg oral gavage, 100-fold dilution into inhibitor-free media, capacitating relative to non-capacitated, 50 mg/kg
  normalized cAMP, diluted: 2.085 and 1.745 and 2.432 and 2.093 and 1.3062 and 3.591 and 2.931 and 3.583
[8]; Fig. 3a replicates, 50 mg/kg oral gavage, capacitating relative to non-capacitated sperm of same mouse, 12 minutes, 50 mg/kg
  normalized cAMP, non-diluted: 1.449 and 1.743 and 0.3 and 0.7791 and 0.9239 and 0.4534 and 0.1485 and 0.05415
[8]; Fig. 3c replicates, 50 mg/kg i.p., 100-fold dilution into inhibitor-free media, capacitating relative to non-capacitated, 50 mg/kg
  normalize cAMP, diluted: 1.94 and 1.936 and 3.937 and 2.155 and 1.983 and 3.104 and 1.124 and 4 and 3.176 and 2.922 and 1.239
[8]; Fig. 3c replicates, 50 mg/kg i.p., capacitating relative to non-capacitated sperm of same mouse, 12 minutes, 50 mg/kg
  normalize cAMP, non-diluted: 0.2801 and 0.5834 and 0.6474 and 0.2247 and 1.279 and 0.9423 and 1.0897 and 0.542 and 0.3506 and 1.1072 and 1.1267
